Literature values as cited in patent publication US20020090642A1, “METHODS FOR DETERMINING THE PROGNOSIS OF BREAST CANCER USING ANTIBODIES SPECIFIC FOR THYMIDYLATE SYNTHASE” (priority 1995, published 2002).

System: TS
Details: 24 hours post-fluorouracil therapy, tumor biopsy samples

In the case of `O=c1[nH]cc(F)c(=O)[nH]1` [fluorouracil], the “increase in TS” value is listed as 2- to 6 fold.
